Values quoted from earlier work as cited in patent US20200352905A1, “6-(2,4-DICHLOROPHENYL)-5-[4-[(3S)-1-(3-FLUOROPROPYL)PYRROLIDIN-3-YL]OXYPHENYL]-8,9-DIHYDRO-7H-BENZO[7]ANNULENE-2-CARBOXYLIC ACID FOR USE IN METASTATIC OR ADVANCED BREAST CANCER PATIENTS” (SANOFI, priority 2019, published 2020).
Like-named read-outs stand apart in the source and are kept apart here.

Legend:
CYP3A [1] = settings: cited from earlier work
CYP3A [2] = settings: cited from earlier work; remark: listed apart in the source
CYP2C8 = settings: cited from earlier work
advanced breast cancer = settings: prior CDK4/6, mTOR, fulvestrant not allowed, cited from earlier work
[3] = moderate CYP3A inhibitors, victim midazolam (oral)
[4] = strong CYP3A inhibitors, victim midazolam (oral)
[5] = victim Midazolam, 1000 mg BID (14 days)
[6] = victim Sildenafil, 62.5-125 mg BID 8 weeks
[7] = victim Indinavir, 500 mg TID 14 days
[8] = victim Quetiapine, 200 mg TID (26 days)
[9] = victim Triazolam, 200-400 mg QD 28 days
[10] = victim Midazolam, 1000 mg QD (14 days)
[11] = victim Verapamil, 100 mg QD 21 days
[12] = victim Nifedipine, 500 mg 4 times daily 5 days
[13] = victim Midazolam, 140 mg QD (10 days)
[14] = EFECT trial 2003-2005, fulvestrant single agent arm, n=270, setting 2L+
[15] = PALOMA-3 trial 2013-2014, fulvestrant single agent arm, n=138, setting 2L+
[16] = SANDPIPER trial 2015-2017, fulvestrant single agent arm, n=134, setting 2L+
[17] = SoFEA trial 2004-2010, fulvestrant single agent arm, n=178, setting 2L+

Clc1ccc(C(c2ccccc2Cl)C(Cl)Cl)cc1 (stereo not drawn) [Mitotane]
% of AUC decrease (CYP3A [1]; victim Midazolam, Maximum of 3.5 g TID (chronic therapy)): 94.5%

Cc1cn(-c2cc(NC(=O)c3ccc(C)c(Nc4nccc(-c5cccnc5)n4)c3)cc(C(F)(F)F)c2)cn1 [nilotinib]
AUC Ratio (CYP3A [2]; [3]): 2.40

O=C1Nc2ccc(Cl)cc2[C@@](C#CC2CC2)(C(F)(F)F)O1 [Efavirenz]
% of AUC decrease (CYP3A [1]; victim Simvastatin acid, 600 mg QD 28 days): 60.4%

CN[C@@H](C)C(=O)N[C@H](C(=O)N1CCC[C@H]1c1nc(C(=O)c2ccc(F)cc2)cs1)C1CCCCC1 [LCL 161]
AUC Ratio (CYP3A [2]; [4]): 8.80

COC(=O)N[C@H](C(=O)N[C@@H](Cc1ccccc1)[C@@H](O)CN(Cc1ccc(-c2ccccn2)cc1)NC(=O)[C@@H](NC(=O)OC)C(C)(C)C)C(C)(C)C [atazanavir]
AUC Ratio (CYP3A [2]; moderate CYP3A inhibitors, victim maraviroc): 3.57

Cc1cc(C#N)cc(C)c1Oc1nc(Nc2ccc(C#N)cc2)nc(N)c1Br [Etravirine]
% of AUC decrease (CYP3A [1]; victim Sildenafil, 800 mg BID 13.5 days): 56.7%

C[C@@H](c1nc(-c2ccc(C#N)cc2)cs1)[C@](O)(Cn1cncn1)c1cc(F)ccc1F [isavuconazole]
AUC Ratio (CYP3A [2]; [3]): 2.03

CO[C@H]1/C=C/O[C@@]2(C)Oc3c(C)c(O)c4c(c3C2=O)C2=NC3(CCN(CC(C)C)CC3)NC2=C(NC(=O)/C(C)=C\C=C\[C@H](C)[C@H](O)[C@@H](C)[C@@H](O)[C@@H](C)[C@H](OC(C)=O)[C@@H]1C)C4=O [Rifabutin]
% oral CL increase (CYP3A [1]; victim Delavirdine, 300 mg QD 14 days): 458.0%

COCCc1ccc(Cl)c(CN(C(=O)[C@H]2CNCC[C@@H]2c2ccc(OCCOc3c(Cl)cc(C)cc3Cl)nc2)C2CC2)c1 [ACT-178882]
AUC Ratio (CYP3A [2]; [3]): 2.19

CC(=O)N1CCN(c2ccc(OCC3COC(Cn4ccnc4)(c4ccc(Cl)cc4Cl)O3)cc2)CC1 (stereo not drawn) [Ketoconazole]
AUC Ratio (CYP3A [2]; in vivo, po): 15.90

COCC(=O)O[C@]1(CCN(C)CCCc2nc3ccccc3[nH]2)CCc2cc(F)ccc2[C@@H]1C(C)C [Mibefradil]
AUC Ratio (CYP3A [2]; [4]): 8.86

CC(C)(C)NC(=O)N[C@H](C(=O)N1C[C@H]2[C@@H]([C@H]1C(=O)NC(CC1CCC1)C(=O)C(N)=O)C2(C)C)C(C)(C)C (stereo partly drawn) [Boceprevir]
AUC Ratio (CYP3A [2]; [4]): 5.05

CCc1nn(CCO)c(CC)c1Oc1cc(C#N)cc(C#N)c1 [Lersivirine]
% of AUC decrease (CYP3A [1]; [5]): 51.4% | % oral CL increase (CYP3A [1]; [5]): 105.5%

CC[C@H]1OC(=O)[C@H](C)C(=O)[C@H](C)[C@@H](O[C@@H]2O[C@H](C)C[C@H](N(C)C)[C@H]2O)[C@](C)(OC)C[C@@H](C)C(=O)[C@H](C)[C@H]2N(CCCCn3cnc(-c4cccnc4)c3)C(=O)O[C@]12C [Telithromycin]
AUC Ratio (CYP3A [2]; [4]): 6.2

COc1ccccc1Oc1c(NS(=O)(=O)c2ccc(C(C)(C)C)cc2)nc(-c2ncccn2)nc1OCCO [Bosentan]
% of AUC decrease (CYP3A [1]; [6]): 69% | % oral CL increase (CYP3A [1]; [6]): 239.8%

COc1ccc2c(c1)N(C(=O)OC(C)C)[C@@H](CSC)C(=S)N2 [Talviraline]
% of AUC decrease (CYP3A [1]; [7]): 61.7% | % oral CL increase (CYP3A [1]; [7]): 181.2%

CCC(C)n1ncn(-c2ccc(N3CCN(c4ccc(OCC5COC(Cn6cncn6)(c6ccc(Cl)cc6Cl)O5)cc4)CC3)cc2)c1=O (stereo not drawn) [Itraconazole]
AUC Ratio (CYP3A [2]; [4]): 10.80

Cc1nc2c([nH]1)-c1ccccc1N(C(=O)c1ccc(NC(=O)c3ccccc3-c3ccccc3)cc1)CC2 [Conivaptan]
AUC Ratio (CYP3A [2]; [4]): 5.76

CCC[C@H](NC(=O)[C@@H]1[C@H]2CCC[C@H]2CN1C(=O)[C@@H](NC(=O)[C@@H](NC(=O)c1cnccn1)C1CCCCC1)C(C)(C)C)C(=O)C(=O)NC1CC1 [Telaprevir]
AUC Ratio (CYP3A [2]; [4]): 13.5

NC(=O)N1c2ccccc2C=Cc2ccccc21 [Carbamazepine]
Max % of AUC decrease or CL increase (CYP2C8; substrate dasabuvir, 200 mg QD (3 days) then BID (21 days)): 70.3% | % of AUC decrease (CYP3A [1]; [8]): 86.6% | % oral CL increase (CYP3A [1]; [8]): 643.1%

OC(Cn1cncn1)(Cn1cncn1)c1ccc(F)cc1F [Fluconazole]
AUC Ratio (CYP3A [2]; [3]): 4.93

O=C1NC(=O)C(c2ccccc2)(c2ccccc2)N1 [Phenytoin]
% of AUC decrease (CYP3A [1]; victim Nisoldipine, 200-450 mg/day (chronic treatment)): 89.5%

NC(=O)C[S+]([O-])C(c1ccccc1)c1ccccc1 (stereo not drawn) [Modafinil]
% of AUC decrease (CYP3A [1]; [9]): 57.6% | % oral CL increase (CYP3A [1]; [9]): 35.7%

O=c1c(-c2ccc(O)cc2)coc2cc(O)cc(O)c12 [Genistein]
% of AUC decrease (CYP3A [1]; [10]): 13.7% | % oral CL increase (CYP3A [1]; [10]): 136.9%

CCc1nn(CCCN2CCN(c3cccc(Cl)c3)CC2)c(=O)n1CCOc1ccccc1 [Nefazodone]
AUC Ratio (CYP3A [2]; [4]): 5.44

Cc1c(O)cccc1C(=O)N[C@@H](CSc1ccccc1)[C@H](O)CN1C[C@H]2CCCC[C@H]2C[C@H]1C(=O)NC(C)(C)C [Nelfinavir]
AUC Ratio (CYP3A [2]; [4]): 5.29

CC[C@H](Nc1ncnc2[nH]cnc12)c1nc2cccc(F)c2c(=O)n1-c1ccccc1 [Idelalisib]
AUC Ratio (CYP3A [2]; [4]): 5.15

CC(C)CN(C[C@@H](O)[C@H](Cc1ccccc1)NC(=O)O[C@H]1CCOC1)S(=O)(=O)c1ccc(N)cc1 [amprenavir]
AUC Ratio (CYP3A [2]; in vivo): 2.93

CC(C)(C)NC(=O)[C@@H]1C[C@@H]2CCCC[C@@H]2CN1C[C@@H](O)[C@H](Cc1ccccc1)NC(=O)[C@H](CC(N)=O)NC(=O)c1ccc2ccccc2n1 [Saquinavir]
AUC Ratio (CYP3A [2]; [4]): 5.18

CC(=O)N1CCN([C@H]2CCN(C(=O)N(C)[C@H](C)c3cc(C(F)(F)F)cc(C(F)(F)F)c3)[C@@H](c3ccc(F)cc3C)C2)CC1 [casopitant]
AUC Ratio (CYP3A [2]; [3]): 3.13

CCCCc1oc2ccc(NS(C)(=O)=O)cc2c1C(=O)c1ccc(OCCCN(CCCC)CCCC)cc1 [Dronedarone]
AUC Ratio (CYP3A [2]; moderate CYP3A inhibitors, victim simvastatin): 3.66

CC[C@@H]([C@H](C)O)n1ncn(-c2ccc(N3CCN(c4ccc(OC[C@@H]5CO[C@@](Cn6cncn6)(c6ccc(F)cc6F)C5)cc4)CC3)cc2)c1=O [Posaconazole]
AUC Ratio (CYP3A [2]; [4]): 6.23

CCC1(c2ccccc2)C(=O)NC(=O)NC1=O [Phenobarbital]
% of AUC decrease (CYP3A [1]; [11]): 76.6% | % oral CL increase (CYP3A [1]; [11]): 400.9%

CCOc1ccc2ccccc2c1C(=O)N[C@@H]1C(=O)N2[C@@H]1SC(C)(C)[C@@H]2C(=O)O [Naficillin]
% of AUC decrease (CYP3A [1]; [12]): 62.6% | % oral CL increase (CYP3A [1]; [12]): 145.1%

CC(C)[C@H](O)C(=O)N[C@@H](C)C(=O)N[C@@H]1C(=O)N(C)CCc2ccccc21 [Semagacestat]
% of AUC decrease (CYP3A [1]; [13]): 76.4% | % oral CL increase (CYP3A [1]; [13]): 324.6%

CC(C)c1cc(C(C)C)c(CC(=O)NS(=O)(=O)Oc2c(C(C)C)cccc2C(C)C)c(C(C)C)c1 [Avasimibe]
% of AUC decrease (CYP3A [1]; victim Midazolam, 750 mg/day (7 days)): 93.5%

N#Cc1ccnc(N2C(=O)CC[C@H]2C(=O)N(c2cncc(F)c2)[C@H](C(=O)NC2CC(F)(F)C2)c2ccccc2Cl)c1 [ivosidenib]
Max % of AUC decrease or CL increase (CYP2C8; substrate repaglinide, 1200 mg QD (19 days), PBPK): 59.0 (PBPK) %

C[C@]12CC[C@@H]3c4ccc(O)cc4C[C@@H](CCCCCCCCC[S+]([O-])CCCC(F)(F)C(F)(F)F)[C@H]3[C@@H]1CC[C@@H]2O (stereo partly drawn) [fulvestrant]
CBR (advanced breast cancer; [14]): 32.2% | ORR (advanced breast cancer; [14]): 7.4% | CBR (advanced breast cancer; [15]): 36% | ORR (advanced breast cancer; [15]): 11% | CBR (advanced breast cancer; [16]): 37.3% | ORR (advanced breast cancer; [16]): 11.9% | CBR (advanced breast cancer; [17]): 31% | ORR (advanced breast cancer; [17]): 8%

C[C@@H](O[C@H]1OCCN(Cc2n[nH]c(=O)[nH]2)[C@H]1c1ccc(F)cc1)c1cc(C(F)(F)F)cc(C(F)(F)F)c1 [aprepitant]
AUC Ratio (CYP3A [2]; [3]): 3.29

CNC(=O)c1ccc(N2C(=S)N(c3ccc(C#N)c(C(F)(F)F)c3)C(=O)C2(C)C)cc1F [Enzalutamide]
% of AUC decrease (CYP3A [1]; victim Midazolam, 160 mg QD (85 ± 3 days)): 85.9%

CO[C@H]1/C=C/O[C@@]2(C)Oc3c(C)c(O)c4c(O)c(c(/C=N/N5CCN(C)CC5)c(O)c4c3C2=O)NC(=O)/C(C)=C\C=C\[C@H](C)[C@H](O)[C@@H](C)[C@@H](O)[C@@H](C)[C@H](OC(C)=O)[C@@H]1C [Rifampin]
Max % of AUC decrease or CL increase (CYP2C8; substrate pioglitazone, 600 mg QD (6 days)): 53.8% | Max % of AUC decrease or CL increase (CYP2C8; substrate repaglinide, 600 mg QD (7 days)): 79.6% | Max % of AUC decrease or CL increase (CYP2C8; substrate rosiglitazone, 600 mg QD (6 days)): 66.4%

CCC1C(C)=NN=C(c2ccc(OC)c(OC)c2)c2cc(OC)c(OC)cc21 (stereo not drawn) [tofisopam]
AUC Ratio (CYP3A [2]; [3]): 2.36

Cc1ccccc1-c1cc(N2CCN(C)CC2)ncc1N(C)C(=O)C(C)(C)c1cc(C(F)(F)F)cc(C(F)(F)F)c1 [netupitant]
AUC Ratio (CYP3A [2]; [3]): 2.44

CC[C@H]1OC(=O)[C@H](C)[C@@H](O[C@H]2C[C@@](C)(OC)[C@@H](O)[C@H](C)O2)[C@H](C)[C@@H](O[C@@H]2O[C@H](C)C[C@H](N(C)C)[C@H]2O)[C@](C)(OC)C[C@@H](C)C(=O)[C@H](C)[C@@H](O)[C@]1(C)O [Clarithromycin]
AUC Ratio (CYP3A [2]; [4]): 8.39
